Test system: nerve-muscle co-culture
Experiment: Muscle contraction frequency in nerve-muscle co-culture
Assay type: cell-based, human, rat
Settings: carisoprodol 5×10^−3M; for Contraction (%): % of contractions at T0; for Contraction (%) / Result: single wells
Method: The nerve-muscle co-culture model is a model suited to studying the influence of a substance on a muscle contraction frequency. The number of muscular contractions is counted during a given time, before and after applying the examined substance to the co-culture. The number of contractions in the presence of the substance is expressed in percentage compared to the initial number of contractions. An inhibitory effect on muscle contraction is determined if a significant reduction or blocking of the muscular contraction frequency is observed in at least 2 wells out of 3 wells containing the nerve-muscle co-culture.
Human muscular cells were seeded in 24-wells culture plates. Cells were incubated at 37° C., 5% CO2 during the entire culture duration.
After 5 days of culture, spinal cords were isolated from rat embryos, and were cut in small parts (explants). One explant per culture well was placed on the muscular cells, and both cell types were cultivated in 24-wells plate for 21 days.
During the cultivation period, the muscular cells merge and form muscular fibers. The motor neurons present in the spinal cord emit nervous extensions which contact the muscular fibers. Neuro-muscular junctions are formed and muscular contractions appear.
After 21 days of co-culture, the model was mature and functional. The muscular fibers innervated spontaneously and contracted in a regular way.
A stock solution of the test extract was prepared in the culture medium. This solution was applied to the nerve-muscle culture.
The culture medium alone served as a negative control.
The positive control was carisoprodol, a drug which blocks the muscular contraction in a reversible way. A stock solution of carisoprodol was prepared in DMSO at 1M. This solution was diluted at 1/200 into the culture medium (final concentration of 5×10^−3M). Three culture wells were used per treatment (control/test extract).
The trial started at the 21st day of the culture.
The microscope is equipped with a motorized stage piloted by a LUCIA software. It is also combined with a camera and connected to a computer allowing the recording of video sequences.
For each selected culture well, a muscle fiber showing regular contractions is referenced. The XY data of this fiber were registered using the LUCIA software. The frequency of the contractions of this fiber was manually counted during 30 seconds, and a video sequence was recorded (T0). The same operation was carried out for all wells.
The test extract and the references were applied to the nerve-muscle culture, and the trial system was incubated at 37° C., 5% CO2.
After 2 hours, 6 hours and 24 hours of incubation, the contraction frequency was counted again during 30 seconds and a video sequence was also recorded for each counting.
For each culture well, the number of muscular contractions counted in the presence of the examined extract is expressed in percentage compared to the number of contractions counted before extract application (T0).
When the frequency of contractions is in the range of between 80%-120% compared to T0, the modulation of the muscular contractions frequency is not considered as significant. This range is based on the fact that during the time, the muscular contraction frequency can vary slightly, independent on the conditions applied.
The results are expressed as follows: • No significant variation in the muscular contractions frequency: contractions percentage between 80 and 120%, symbolized by (=) • A significant reduction in the muscular contractions frequency: contractions percentage <80%, symbolized by (−). • Blocking of the muscular contractions frequencies: contractions percentage=0%, symbolized by (0) • A significant increase in the muscular contractions frequencies: contractions percentage >120%, symbolized by (+).
The product effect is assessed only if the same result is obtained in at least 2 out of 3 culture wells (i.e. 2 out of 3 muscle fibers).

## CCCC(C)(COC(N)=O)COC(=O)NC(C)C (stereo not shown) [Carisoprodol, carisoprodol]
2 h incubation
  conclusion: Blocked
  Contraction (%): 0%
  Result: 0 (Blocking of the muscular contractions frequencies: contractions percentage=0%)
2 h incubation, listed as carisoprodol
  conclusion: complete blockage
6 h incubation
  conclusion: Blocked
  Contraction (%): 0%
  Result: 0 (Blocking of the muscular contractions frequencies: contractions percentage=0%)
6 h incubation, listed as carisoprodol
  conclusion: complete blockage
24 h incubation
  conclusion: Blocked
  Contraction (%): 0%
  Result: 0 (Blocking of the muscular contractions frequencies: contractions percentage=0%)
24 h incubation, listed as carisoprodol
  conclusion: complete blockage
After rinsing off
  reversibility of the effect on muscle contractions after rinsing off: reversible

Reference: US20110171332A1, “LEUCOJUM BULB EXTRACTS AND USE THEREOF” (I.B.R. ISRAELI BIOTECHNOLOGY RESEARCH LTD., priority 2008, published 2011)
